Here are results for 1 compound from ChEMBL document CHEMBL1136035, “New Rev-transport inhibitor with anti-HIV activity from Valerianae Radix” (2002).

Molecules are shown by their SMILES.

In this experiment the test system is MT4. The experiment is described as follows: Antiviral activity was determined by measurement of HIV-p24 antigen production in the supernatants of the infected MT-4 cell cultures with acommercially available HIV-antigen kit. The experiment is classed as functional, Homo sapiens.

A word on the Inhibition: it is the drop in the measured response relative to a control, in per cent. Higher therefore signals strong suppression. In turn, `CC(=O)OCC1=CO[C@@H](OC(=O)CC(C)C)[C@H]2C1=C[C@H](OC(=O)CC(C)C)[C@]21CO1` [VALTRATE] came in with an Inhibition of 44%.
